Experimental data: US9512140B2, “(Thieno[2,3-b][1,5]benzoxazepin-4-yl)piperazin-1-yl compounds as dual activity H1 inverse agonists/5-HT2A antagonists” (priority 2011, dated 2016)
Counter-ions that a name gives are not always drawn.

Legend:
[1] = molecular target: T1, recombinant 5-HT2A receptor (human) (Homo sapiens, UniProt P28223); experiment: 5-HT2A competition binding assay ([3H]-Ketanserin, SPA)
T1 construct: expressed in transfected cells; host or cells: AV-12 (membranes)
Description: [^3H]-Ketanserin binding experiments are carried out in SPA 96-well format. Membranes used in this assay are prepared from AV-12 cells stably expressing recombinant 5-HT2A receptor (human). The incubation is initiated by the addition of a mixture of WGA YSi SPA beads (1 mg/well, Perkin Elmer (MA, USA), RPNQ0011) and 2 μg membranes to assay buffer (67 mM Tris, 0.5 mM EDTA; pH 7.6) containing 3.1 nM [^3H]-Ketanserin and varying concentrations of the test compound (10 point concentration response curves). Non-specific binding is determined in the presence of 20 μM 1-(1-Naphthyl) piperazine. Samples are incubated for 4 hr. at room temperature (22° C.) and then read in a Microbeta Trilux.
(§1) Curves are evaluated using a 4-parameter logistic nonlinear equation to obtain the concentration of competitor causing 50% inhibition of radioligand binding (IC50). Equilibrium dissociation constants (Ki) are calculated according to the equation Ki=IC50/(1+L/Kd), where L equals the concentration of radioligand used in the experiment and Kd equals the equilibrium dissociation constant of the radioligand for the receptor, determined from standard saturation analysis or homologous competition experiments. Reported values for Ki, where n values are indicated, are shown as geometric mean±the standard error of the mean (SEM), with the number of replicate determinations indicated by n. […]

5-HT2B = 5-HT2B (Homo sapiens, UniProt P41595); experiment: 5-HT2B antagonist functional activity; format: biochemical
Source text: (§2) Further, the compounds of the invention may be tested in binding assays and functional activity assays by well known methods for other physiologically important receptors such as, but not limited to, the hERO channel, other serotonin receptors (specifically 5-HT1B, 5-HT1D, receptors, lack of agonist activity at 5-HT2B receptors, 5-HT2C, 5-HT5, 5-HT6, and 5-HT7 receptors), dopaminergic receptors (specifically D1, D2, and D3), GABAA receptors, adrenergic receptors and monoamine transporters.

[2] = molecular target: T2, recombinant 5-HT2C receptor (human) (Homo sapiens, UniProt P28335); experiment: 5-HT2C competition binding assay ([125I]-DOI, SPA)
T2 construct: expressed in transfected cells; host or cells: AV-12 (membranes)
Description: [^125I]-(±)DOI binding experiments are carried out in SPA 96-well format. Membranes used in this assay are prepared from AV-12 cells stably expressing recombinant 5-HT2C receptor (human). The incubation is initiated by the addition of a mixture of WGA PVT SPA beads (0.5 mg/well, Perkin Elmer (MA, USA), RPNQ0001) and 2.5 μg membranes to assay buffer (50 mM Tris-HCl, 10 mM MgCl2, 0.5 mM EDTA, 10 μM pargyline, 0.1% ascorbic acid, pH7.4) containing 0.2 nM [[^125I]-(±)DOI and varying concentrations of the test compound (10 point concentration response curves). Non-specific binding is determined in the presence of 20 μM 1-(1-Naphthyl) piperazine. Samples are incubated for 4 hr. at room temperature (22° C.) and then read in a Microbeta Trilux.
as §1, with “experiments.” for “experiments. Reported values for Ki, where n values are indicated, are shown as geometric mean±the standard error of the mean (SEM), with the number of replicate determinations indicated by n.”

native GABAA receptors = experiment: GABAA antagonism using native receptors in primary neuronal cultures (FLIPR); format: cell-based; details: against GABA at 10 μM, rat cortical embryonic neurons
Description: Activity of compounds on native GABAA receptors is evaluated by monitoring calcium fluxes using a 96 well format FLIPR® system (Fluorometric Imaging Plate Reader (FLIPR®, Molecular Devices). Briefly, cortical embryonic neurons are dissociated from E18 rat embryos and plated at optimum density into black-walled, transparent bottom poly-D-lysine coated 96-well FLIPR® plates. After loading the cells with a calcium sensitive dye (Fluo4-AM, Molecular Devices), the cells are bathed in a solution containing low chloride (chloride replaced by gluconate). Under these conditions activation of GABAA receptors causes an efflux of chloride ions (in the direction of the chemical gradient), which results in membrane depolarization and consequently activation of voltage gated calcium channels (VGCCs). Calcium influx through VGCCs is recorded and analysed offline using the FLIPR® system. For a pharmacological validation of the assay, concentration response curves (CRC) are recorded for the standard agonist (GABA) and standard antagonist (Gabazine). […]
The antagonist effects of compounds are quantified using 10-point dose response curves by comparing the peak fluorescent responses to the agonist GABA in the presence and absence of compound. […] Antagonist effects are calculated as a percent of the assay window. […]

5-HT5 = 5-HT5 (Homo sapiens, UniProt P47898); experiment: 5-HT5 binding
Source text: as §2

Adrenergic alpha1A = Adrenergic alpha1A (Homo sapiens, UniProt P35348); experiment: Adrenergic alpha1A binding
Source text: as §2

Adrenergic alpha1B = Adrenergic alpha1B (Homo sapiens, UniProt P35368); experiment: Adrenergic alpha1B binding
Source text: as §2

Adrenergic alpha2B = Adrenergic alpha2B (Homo sapiens, UniProt P18089); experiment: Adrenergic alpha2B binding
Source text: as §2

Adrenergic alpha2C = Adrenergic alpha2C (Homo sapiens, UniProt P18825); experiment: Adrenergic alpha2C binding
Source text: as §2

Serotonin Transporter = Serotonin Transporter (Homo sapiens, UniProt P31645); experiment: Serotonin transporter binding
Source text: as §2

Adrenergic alpha2C, sequence (P18825 whole entry): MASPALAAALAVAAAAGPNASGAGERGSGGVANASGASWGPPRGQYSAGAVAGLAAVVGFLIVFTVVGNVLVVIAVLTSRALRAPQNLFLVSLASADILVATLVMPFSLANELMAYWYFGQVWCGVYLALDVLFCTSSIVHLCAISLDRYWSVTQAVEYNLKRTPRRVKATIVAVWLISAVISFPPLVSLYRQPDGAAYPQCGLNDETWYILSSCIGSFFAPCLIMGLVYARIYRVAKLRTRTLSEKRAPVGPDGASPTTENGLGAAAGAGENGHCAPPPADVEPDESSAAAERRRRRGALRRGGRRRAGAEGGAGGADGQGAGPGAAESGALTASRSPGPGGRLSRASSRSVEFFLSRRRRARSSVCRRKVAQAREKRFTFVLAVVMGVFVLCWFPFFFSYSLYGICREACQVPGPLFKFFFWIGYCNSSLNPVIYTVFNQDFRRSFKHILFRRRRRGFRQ
Serotonin Transporter, sequence (P31645 whole entry): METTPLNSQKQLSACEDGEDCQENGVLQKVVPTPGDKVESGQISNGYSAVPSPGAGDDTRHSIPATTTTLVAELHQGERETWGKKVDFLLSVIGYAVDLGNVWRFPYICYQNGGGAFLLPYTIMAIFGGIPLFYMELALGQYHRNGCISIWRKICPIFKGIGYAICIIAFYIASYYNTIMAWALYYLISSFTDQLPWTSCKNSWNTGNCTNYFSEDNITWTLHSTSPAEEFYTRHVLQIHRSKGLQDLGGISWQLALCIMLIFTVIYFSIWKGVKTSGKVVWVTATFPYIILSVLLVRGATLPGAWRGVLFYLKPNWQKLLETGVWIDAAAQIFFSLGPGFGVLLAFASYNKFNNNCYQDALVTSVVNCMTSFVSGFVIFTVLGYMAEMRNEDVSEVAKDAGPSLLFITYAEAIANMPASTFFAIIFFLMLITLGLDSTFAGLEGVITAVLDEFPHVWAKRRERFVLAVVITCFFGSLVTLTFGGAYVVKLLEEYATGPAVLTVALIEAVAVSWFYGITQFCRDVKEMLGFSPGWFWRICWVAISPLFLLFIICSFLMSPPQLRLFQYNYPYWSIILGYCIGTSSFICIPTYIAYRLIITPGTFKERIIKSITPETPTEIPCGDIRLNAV
T1 sequence (P28223 whole entry): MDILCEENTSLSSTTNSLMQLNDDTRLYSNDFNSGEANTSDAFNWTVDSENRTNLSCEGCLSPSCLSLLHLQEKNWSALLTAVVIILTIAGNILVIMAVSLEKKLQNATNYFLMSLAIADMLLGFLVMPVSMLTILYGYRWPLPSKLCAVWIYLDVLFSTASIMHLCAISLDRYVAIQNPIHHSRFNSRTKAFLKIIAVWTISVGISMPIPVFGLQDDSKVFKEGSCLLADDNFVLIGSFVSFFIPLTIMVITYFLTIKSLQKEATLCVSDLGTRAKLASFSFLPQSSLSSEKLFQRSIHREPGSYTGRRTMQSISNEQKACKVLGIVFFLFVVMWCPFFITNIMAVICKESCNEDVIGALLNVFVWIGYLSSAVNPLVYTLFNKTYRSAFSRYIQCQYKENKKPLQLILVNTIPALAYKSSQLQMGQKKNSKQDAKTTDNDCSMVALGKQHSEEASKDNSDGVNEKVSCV
T2 sequence (P28335 33-458): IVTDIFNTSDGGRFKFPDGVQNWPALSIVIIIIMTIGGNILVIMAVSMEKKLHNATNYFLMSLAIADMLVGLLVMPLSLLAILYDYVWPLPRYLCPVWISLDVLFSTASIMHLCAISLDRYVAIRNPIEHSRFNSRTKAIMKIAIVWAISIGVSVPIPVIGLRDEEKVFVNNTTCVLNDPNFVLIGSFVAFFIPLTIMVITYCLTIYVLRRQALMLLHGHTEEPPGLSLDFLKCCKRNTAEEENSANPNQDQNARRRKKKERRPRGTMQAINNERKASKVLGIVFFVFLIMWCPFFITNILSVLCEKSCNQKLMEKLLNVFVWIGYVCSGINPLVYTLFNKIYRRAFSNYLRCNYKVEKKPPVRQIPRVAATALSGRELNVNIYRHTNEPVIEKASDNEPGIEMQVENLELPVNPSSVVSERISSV
5-HT5, sequence (P47898 whole entry, species assumed): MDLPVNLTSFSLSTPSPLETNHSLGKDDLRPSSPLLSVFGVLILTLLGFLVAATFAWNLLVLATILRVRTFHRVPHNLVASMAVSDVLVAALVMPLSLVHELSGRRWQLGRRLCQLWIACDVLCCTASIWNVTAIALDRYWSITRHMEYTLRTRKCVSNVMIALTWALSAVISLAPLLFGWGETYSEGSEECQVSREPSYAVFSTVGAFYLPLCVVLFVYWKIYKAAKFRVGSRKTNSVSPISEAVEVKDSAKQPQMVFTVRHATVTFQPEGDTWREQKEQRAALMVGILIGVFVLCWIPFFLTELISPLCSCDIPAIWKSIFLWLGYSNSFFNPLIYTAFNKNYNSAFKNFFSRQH
Adrenergic alpha1A, sequence (P35348 whole entry): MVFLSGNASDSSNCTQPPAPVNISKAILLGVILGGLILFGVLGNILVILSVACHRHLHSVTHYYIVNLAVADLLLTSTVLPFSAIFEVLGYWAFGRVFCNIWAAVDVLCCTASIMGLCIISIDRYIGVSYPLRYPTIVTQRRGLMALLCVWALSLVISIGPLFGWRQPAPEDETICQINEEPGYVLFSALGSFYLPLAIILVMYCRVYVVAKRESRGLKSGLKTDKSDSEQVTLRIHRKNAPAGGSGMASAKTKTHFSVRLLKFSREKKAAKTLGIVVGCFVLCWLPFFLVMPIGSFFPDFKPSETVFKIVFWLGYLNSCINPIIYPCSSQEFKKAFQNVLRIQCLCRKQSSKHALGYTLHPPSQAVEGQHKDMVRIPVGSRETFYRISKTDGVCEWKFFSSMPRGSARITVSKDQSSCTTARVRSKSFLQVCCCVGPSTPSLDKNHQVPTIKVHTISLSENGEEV
Adrenergic alpha1B, sequence (P35368 whole entry): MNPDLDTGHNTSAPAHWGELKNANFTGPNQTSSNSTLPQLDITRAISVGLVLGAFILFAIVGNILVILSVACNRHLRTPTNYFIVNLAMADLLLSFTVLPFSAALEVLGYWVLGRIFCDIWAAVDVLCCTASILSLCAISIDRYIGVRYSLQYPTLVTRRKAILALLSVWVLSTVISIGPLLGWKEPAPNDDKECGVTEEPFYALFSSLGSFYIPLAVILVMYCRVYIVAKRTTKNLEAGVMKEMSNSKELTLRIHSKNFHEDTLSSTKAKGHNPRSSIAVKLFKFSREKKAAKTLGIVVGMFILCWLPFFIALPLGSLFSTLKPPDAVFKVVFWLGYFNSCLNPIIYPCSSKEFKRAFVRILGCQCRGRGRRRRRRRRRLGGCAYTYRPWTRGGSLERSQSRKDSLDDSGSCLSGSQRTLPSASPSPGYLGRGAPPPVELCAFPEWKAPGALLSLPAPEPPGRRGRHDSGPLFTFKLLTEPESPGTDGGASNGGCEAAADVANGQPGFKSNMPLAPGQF
5-HT2B, sequence (P41595 whole entry, species assumed): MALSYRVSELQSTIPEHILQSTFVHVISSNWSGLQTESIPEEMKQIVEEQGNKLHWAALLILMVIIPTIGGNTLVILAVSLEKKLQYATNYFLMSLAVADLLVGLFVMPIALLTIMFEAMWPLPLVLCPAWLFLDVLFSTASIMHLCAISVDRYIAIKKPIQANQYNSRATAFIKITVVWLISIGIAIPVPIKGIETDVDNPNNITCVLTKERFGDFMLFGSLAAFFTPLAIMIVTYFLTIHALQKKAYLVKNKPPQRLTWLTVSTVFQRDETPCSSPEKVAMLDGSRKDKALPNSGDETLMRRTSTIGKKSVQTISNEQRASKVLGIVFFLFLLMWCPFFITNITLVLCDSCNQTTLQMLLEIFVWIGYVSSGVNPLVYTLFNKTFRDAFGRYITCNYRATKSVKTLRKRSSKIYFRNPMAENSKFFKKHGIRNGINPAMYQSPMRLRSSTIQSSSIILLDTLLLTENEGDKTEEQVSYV
Adrenergic alpha2B, sequence (P18089 whole entry): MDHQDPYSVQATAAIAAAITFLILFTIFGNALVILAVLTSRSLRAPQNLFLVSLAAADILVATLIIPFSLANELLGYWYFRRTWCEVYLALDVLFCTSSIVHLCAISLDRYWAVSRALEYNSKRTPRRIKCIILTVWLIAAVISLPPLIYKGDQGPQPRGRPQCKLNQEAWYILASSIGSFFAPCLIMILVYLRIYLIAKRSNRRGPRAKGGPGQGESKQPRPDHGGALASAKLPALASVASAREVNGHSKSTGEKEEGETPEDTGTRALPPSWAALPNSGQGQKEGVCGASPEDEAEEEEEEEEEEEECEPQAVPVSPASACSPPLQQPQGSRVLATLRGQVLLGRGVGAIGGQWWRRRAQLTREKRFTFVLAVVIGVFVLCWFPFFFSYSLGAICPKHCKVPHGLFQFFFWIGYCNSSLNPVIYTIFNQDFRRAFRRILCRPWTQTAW

Cc1ccc2c(c1)Oc1sc(C)cc1C(N1CCN(CC(C)(C)C(=O)O)CC1)=N2 [Example 2, 3-[4-(2,8-Dimethylthieno[2,3-b][1,5]benzoxazepin-4-yl)piperazin-1-yl]-2,2-dimethyl-propanoic acid dihydrochloride]
Ki [1]: 0.0113 µM | Kb (5-HT2B): 0.045 µM | Ki [2]: 0.883 µM | IC50 (native GABAA receptors): 98 µM | Ki (5-HT5): > 8.83 µM | Ki (Adrenergic alpha1A): > 10.5 µM | Ki (Adrenergic alpha1B): > 16.2 µM | Ki (Adrenergic alpha2B): 3.71 µM | Ki (Adrenergic alpha2C): > 5.55 µM | Ki (Serotonin Transporter): > 0.651 µM
